Test results as given in US8889680B2, “Treatment or prevention of fungal infections with PDK1 inhibitors” (priority 2010, dated 2014).
≈ marks a conversion by molar mass, not a printed value. Read-outs that look alike come from different tables or passages of the source.

Legend:
[1] = test system: C. albicans clinical reference strain SC5314; assay: Adenylate kinase (AK) release assay of yeast cell lysis; format: cell-based, Candida albicans; parameters: dose or concentration left out as unconfirmed; settings: extracellular AK activity relative to DMSO-treated cells
Method: AK assays were performed according to a recently published protocol (Didone et al., Nat. Protocol. 5:1107-14 (2010)) using the 96-well plate version using the Toxi-Light Assay kit (Lonza; Basel, Switzerland). Luminescence was measured using a SpectraMax plate reader (Molecular Devices; Sunnyvale, Calif.). […] To identify PKIs that disrupt yeast cell wall integrity, a four-part screening strategy as outlined in FIG. 1A was designed. The primary screen in the approach detects molecules that cause yeast cells to lyse, a characteristic phenotype of yeast cell wall damage, by use of an assay that detects the release of adenylate kinase (AK) to the growth medium as a reporter of yeast cell lysis. […] Last, to select PKIs specific for the CWI signaling pathway, the set of hits were tested for their ability to block the activation of a transcriptional reporter of the CWI-signaling pathway. To rapidly survey a sample of well-characterized PKIs, the commercially available InhibitorSelect collection, a library of 80 PKIs with diverse mechanistic and structural characteristics, was utilized. C. albicans clinical reference strain SC5314 was screened against the InhibitorSelect library for molecules that caused a release of AK into the growth medium.

C. albicans [2] = assay: Antifungal susceptibility (microdilution MIC), C. albicans; format: cell-based, Candida albicans
Method: (§1) The antifungal activity of protein kinase inhibitors was determined using the Clinical and Laboratory Science Institute microdilution protocol M-27A2. Biofilm antifungal activity was determined using the protocol of Pierce et al. and is reported as MIC50S (Pierce et al., Nat. Protoc. 3:1494-1500 (2008)). Disk diffusion assays were performed as described previously (Roelants et al., Microbiology 150:3289-304 (2004)).
To identify PKIs that disrupt yeast cell wall integrity, a four-part screening strategy as outlined in FIG. 1A was designed. The primary screen in the approach detects molecules that cause yeast cells to lyse, a characteristic phenotype of yeast cell wall damage, by use of an assay that detects the release of adenylate kinase (AK) to the growth medium as a reporter of yeast cell lysis. Previously it was shown that the AK assay in HTS format can detect as few as 500 lysed yeast cells in a sample of 10^5 cells (Didone et al., Nat. Protocol. 5:1107-14 (2010)). PKIs that cause yeast cells lysis (hits) were then re-confirmed by AK dose-response assays and tested for in vitro antifungal activity against the human fungal pathogen C. albicans using standard microdilution susceptibility testing. Last, to select PKIs specific for the CWI signaling pathway, the set of hits were tested for their ability to block the activation of a transcriptional reporter of the CWI-signaling pathway. […]

C. neoformans = assay: Antifungal susceptibility (microdilution MIC), C. neoformans; format: cell-based, Cryptococcus neoformans
Method: as §1
(FIG. 3A). […] Since the echinocandin class of cell wall-targeted 1,3-β-glucan synthase inhibitors is not active against C. neoformans, this represents one of the few cell wall-targeted molecules with activity against this important pathogen.

C. albicans biofilms = assay: Biofilm XTT reduction assay of metabolic activity; format: cell-based, Candida albicans; settings: at higher concentrations than those active against planktonic cells
Method: Filled circles indicate growth and clear circles indicate no detectable turbidity. The lowest concentration of drug resulting in no growth is defined as the MIC. […] Metabolic activity was determined using the XTT assay.
SC5314 biofilms were generated in microtiter plates for 48 hours and treated with OSU-03012 for 24 hours before being subject to an XTT reduction assay of metabolic activity.
as §1

[3] = test system: C. albicans strain SC5314; assay: Mouse model of candidiasis, kidney fungal burden; format: in vivo; settings: BALB/c mice, 100 mg/kg per day by oral gavage in peanut oil, 2 days, C. albicans SC5314 i.v.
Method: (§2) YPD cultures were incubated at 37° C. for 30 hours in the presence of the indicated drugs and combinations. Aliquots were diluted and plated on YPD at 30° C. to determine inoculum. […] BALB/c mice (n=5 per group) were treated with 100 mg/kg OSU-03012 per day by oral gavage after inoculation with C. albicans SC5314 by tail vein injection for 2 days and kidney fungal burden was determined.
On the day of inoculation (DO), BALB/c mice were restrained in a mechanical restrainer and inoculated with C. albicans strain SC5314 suspended in saline (1×10^5 cfu/animal) via lateral tail vein injection. OSU-03012 (100 mg/kg) in peanut oil was given by gavage to half the animals (n=5) and peanut oil alone was given to the other half of animals on the day of inoculation and on the following day. ON D2, the animals were sacrificed and the kidneys harvested. The kidneys were homogenized and dilutions were plated on yeast peptone dextrose plates containing gentamicin and vancomycin. The plates were incubated at 30° C. for one day and colony forming units per kidney were determined by standard methods. Differences between treatment and no treatment groups were analyzed by Student's t test with a statistically significant effect defined as P<0.05.

C. neoformans H99 = assay: Time-kill evaluation in combination with fluconazole; format: cell-based, Cryptococcus neoformans; settings: C. neoformans H99, YPD, 37° C., 30 hours
Method: as §2
To determine if the combination of OSU-03012 and fluconazole was fungicidal, overnight cultures of C. neoformas strain H99 were diluted to 1.5×10^4 cells/ml in yeast peptone dextrose containing either: dimethyl sulfoxide (DMSO) (1% final concentration); fluconazole (2 μg/ml/1% DMSO); OSU-03012 (2 μg/ml/1% DMSO); or OSU-03012 and fluconazole (2 μg/ml each/1% DMSO). The cultures were incubated at 37° C. for 30 hours. Aliquots were removed at 0, 3, 6, 24, and 30 hours; diluted and plated on yeast peptone dextrose plates. The plates were incubated at 30° C. for 48 hours and colony forming units per ml determined by standard methods. It was determined that the combination of OSU-03012 and fluconazole was fungicidal (FIG. 9A).

human cells = settings: cited from earlier work
[4] = test system: CWI pathway reporter Rlm1-lacZ; assay: β-Galactosidase CWI pathway reporter assay (Rlm1-lacZ); format: cell-based; settings: sub-inhibitory concentrations (1/2 MIC), S. cerevisiae
Method: Bars indicate mean fold change in Miller units of β-galactosidase activity relative to logarithmic phase cells without calcofluor or PKI. Error bars indicate standard deviation of three independent trials performed in triplicate. […] The percentage of cells with PI uptake was determined by fluorescence.
Logarithmic phase S. cerevisiae (BY4741) cells harboring the pRLM1-lacZ plasmid were transferred to a 96-well plate, and treated with Calcofluor white ([…])+/−protein kinase inhibitor at sub-inhibitory concentrations (1/2MIC). The cells were incubated at room temperature for 5 hours and processed for β-galactosidase activity using the ThermoScientific Yeast β-galactosidase kit according to the manufacturer's instructions (Pierce; Rockford, Ill.). β-galactosidase activity was determined by measuring OD420 using a SpectraMax Plate reader (Molecular Devices) and expressed as fold change in Miller units (nmole/mg/min) relative to untreated cells. Each experiment was performed in duplicate with three independent isolates.
The novel, antifungal PKIs identified in the primary screen were evaluated for their ability to block CWI pathway signaling using a reporter construct that contains two copies of the consensus binding site for the CWI-pathway-regulated transcription factor Rlm1 fused to the β-galactosidase gene (Jung et al., Mol. Microbiol. 46:781-9 (2002)). […]

C. albicans [5] = assay: Checkerboard interaction assay (FIC); format: cell-based, Candida albicans
Method: This assay allows one to compare the activity of a molecule alone and in combination with another molecule by generating a fractional inhibitory concentration (FIC). FIC for two drugs (A & B) is calculated as follows: […]. FIC values less than 0.5 are considered synergistic; between 0.5 and 1 are additive; between 1-2 are indifferent; and above 2 are antagonistic. […] Therefore, KP-372-1 is not synergistic with either agent.

[6] = C. albicans growth assay, Table 1
[7] = Candida albicans, C. albicans growth assay, Table 1, read-out: MIC

Question: With `CC[n+]1c(/C=C/N(C)c2ccccc2)n(-c2ccccc2)c2ccc(-c3nc4ccccc4s3)cc21.[I-]` [Akt IV] as the compound, how does the “Fold increase in AK release” value [1] read?
Answer: 12 Fold

Question: And the MIC (C. albicans [2]; [6])?
Answer: 9 µg/mL

Question: What does the source list for `O=C(Nc1cccc(Nc2ncc(Br)c(NCCc3cnc[nH]3)n2)c1)N1CCCC1` [BX-912]?
Answer: MIC (growth inhibition) (C. albicans [2]; C. albicans, planktonic): ≥ 64 µg/mL; MIC (growth inhibition) (C. neoformans): ≥ 64 µg/mL

Question: Which “Fold increase in AK release” value [1] does the source give for `COc1ccc2c(c[n+](C)c3c4cc5c(cc4ccc23)OCO5)c1OC` [Chelerythine] here?
Answer: 5 Fold

Question: And the MIC (C. albicans [2]; [6])?
Answer: 125 µg/mL

Question: Which “antifungal activity (in words)” value (C. albicans [2]; C. albicans) does the source give for `NCC(=O)Nc1ccc(-n2nc(C(F)(F)F)cc2-c2ccc3c(ccc4ccccc43)c2)cc1` [OSU-03012] here?
Answer: good antifungal activity

Question: And the MIC (C. albicans [2]; Candida albicans, C. albicans, FIG. 7 legend, read-out: MIC)?
Answer: 3 µg/mL (≈ 6.52 µM)

Question: What about the “antifungal activity (in words)” value (C. neoformans) of the same compound?
Answer: good antifungal activity

Question: And the MIC (C. neoformans; Cryptococcus neoformans, FIG. 7 legend)?
Answer: 4 µg/mL (≈ 8.69 µM)

Question: And the “activity against C. albicans biofilms (in words)” value (C. albicans biofilms)?
Answer: showed activity

Question: And the “in vivo activity (kidney fungal burden)” value [3]?
Answer: in vivo activity against C. albicans infection

Question: And the interaction with fluconazole (C. neoformans H99)?
Answer: synergistic

Question: What about the “time-kill result of the combination” value (C. neoformans H99; OSU-03012 and fluconazole 2 μg/ml each) of the same compound?
Answer: fungicidal

Question: And the “concentration tolerated in human cells” value (human cells)?
Answer: 8000 ng/mL

Question: With `CO[C@H]1C[C@@H]2CC[C@@H](C)[C@@](O)(O2)C(=O)C(=O)N2CCCC[C@H]2C(=O)O[C@H]([C@H](C)C[C@@H]2CC[C@@H](O)[C@H](OC)C2)CC(=O)[C@H](C)/C=C(\C)[C@@H](O)[C@@H](OC)C(=O)[C@H](C)C[C@H](C)/C=C/C=C/C=C/1C` [Rapamycin] as the compound, how does the “Fold increase in AK release” value [1] read?
Answer: 17 Fold

Question: And the MIC (C. albicans [2]; [7])?
Answer: 100 µg/mL (≈ 109 µM)

Question: Which results are given for `CN[C@@H]1C[C@H]2O[C@@](C)([C@@H]1OC)n1c3ccccc3c3c4c(c5c6ccccc6n2c5c31)C(=O)NC4` [Staurosporine]?
Answer: Fold increase in AK release [1]: 48 Fold; MIC (C. albicans [2]; [7]): 0.5 µg/mL (≈ 1.07 µM)

Question: Which “Fold increase in AK release” value [1] does the source give for `NCCNc1ncc(C(N)=O)c(Nc2cccc(C(F)(F)F)c2)n1` [Sykll] here?
Answer: 14 Fold

Question: And the MIC (C. albicans [2]; [6])?
Answer: 9 µg/mL (≈ 26.4 µM)

Question: And the “Rlm1-lacZ reporter activity induced by Calcofluor white” value [4]?
Answer: completely abolished reporter activity

Question: What does the source list for `CN[C@@H]1C[C@H]2O[C@@](C)([C@@H]1OC)n1c3ccccc3c3c4c(c5c6ccccc6n2c5c31)C(=O)N[C@@H]4O` [UCN-01]?
Answer: antifungal activity (in words) (C. albicans [2]; C. albicans): good antifungal activity; antifungal activity (in words) (C. neoformans): good antifungal activity; activity against C. albicans biofilms (in words) (C. albicans biofilms): showed activity; FIC (fractional inhibitory concentration) (C. albicans [5]; combination with caspofungin): 1.0; FIC (fractional inhibitory concentration) (C. albicans [5]; combination with fluconazole): 0.3

Question: With Herbymicin as the compound, how does the “Fold increase in AK release” value [1] read?
Answer: 127 Fold

Question: What about the MIC (C. albicans [2]; [6]) of the same compound?
Answer: 40 µg/mL
